Results taken from the supplement of paper PMC11061612.

What was measured:
Experiment in all cases: Bliss excess, mean over the matrix (fraction); higher = more synergy
[1] = tested on: P31-FUJ (Acute Myeloid Leukemia)
In short: (§1)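 Cell lines grown in DMEM/F12 or RPMI with 10% FBS were plated in 1536-well plates and held 24 hours at 37°C, 5% CO2 before 72 hours of exposure to two-drug dose matrices, with DMSO typically at 0.2%. CellTiter-Glo 2.0 luminescence gave viability, which was converted to inhibition. Vehicle wells were set to 0 and blank wells to 1. Combination Emax is the second-highest inhibition in the matrix, and Bliss excess is the observed combination effect minus the expected EA + EB − EA·EB, where EA and EB are the single-agent effects.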

[2] = tested on: CAL-39 (Other Solid Carcinomas)
In short: as §1

[3] = tested on: HCT-116 (Colorectal Carcinoma)
In short: as §1

[4] = tested on: D-283MED (Other Solid Carcinomas)
In short: as §1

[5] = tested on: SK-UT-1 (Other Solid Carcinomas)
In short: as §1

[6] = tested on: U-118-MG (Low Grade Glioma)
In short: as §1

[7] = tested on: WSU-DLCL2 (B-Cell Non-Hodgkin's Lymphoma)
In short: as §1

Saos-2 (Osteosarcoma) = tested on: Saos-2 (Osteosarcoma)
In short: as §1

[8] = tested on: NCI-H1688 (Small Cell Lung Carcinoma)
In short: as §1

[9] = tested on: SW48 (Colorectal Carcinoma)
In short: as §1

[10] = tested on: EKVX (Non-Small Cell Lung Carcinoma)
In short: as §1

[11] = tested on: SLVL (B-Cell Non-Hodgkin's Lymphoma)
In short: as §1

SMILES | Bliss excess [1] | Bliss excess [2] | Bliss excess [3] | Bliss excess [4] | Bliss excess [5] | Bliss excess [6] | Bliss excess [7] | Bliss excess (Saos-2 (Osteosarcoma)) | Bliss excess [8] | Bliss excess [9] | Bliss excess [10] | Bliss excess [11]
C=CCn1c(=O)c2cnc(Nc3ccc(N4CCN(C)CC4)cc3)nc2n1-c1cccc(C(C)(C)O)n1 [AZD1775] + C[C@@H]1COCCN1C2=NC(=NC(=C2)C3(CC3)[S@](=N)(=O)C)C4=C5C=CNC5=NC=C4 [AZD6738] (first compound max 1 µM, partner max 10 µM) | -0.008 | 0.0822 | 0.0252 | 0.0327 | 0.0498 | -0.0075 | 0.0763 | 0.0071 | 0.0326 | 0.0642 | -0.0087 | -0.0105
C=CCn1c(=O)c2cnc(Nc3ccc(N4CCN(C)CC4)cc3)nc2n1-c1cccc(C(C)(C)O)n1 [AZD1775] + O=C(c1cc(Cc2n[nH]c(=O)c3ccccc23)ccc1F)N1CCN(C(=O)C2CC2)CC1 [Olaparib] (first compound max 1 µM, partner max 10 µM) | -0.0809 | -0.0223 | -0.0239 | 0.0079 | -0.0148 | -0.0766 | -0.0184 | -0.0422 | -0.0142 | -0.0398 | -0.0564 | -0.0005
CCN(CCO)CCCOc1ccc2c(Nc3cc(CC(=O)Nc4cccc(F)c4)[nH]n3)ncnc2c1 [AZD2811] + C=CCn1c(=O)c2cnc(Nc3ccc(N4CCN(C)CC4)cc3)nc2n1-c1cccc(C(C)(C)O)n1 [AZD1775] (first compound max 1 µM, partner max 1 µM) | -0.0615 | -0.0078 | 0.0524 | 0.0452 | 0.108 | 0.0469 | 0.013 | 0.029 | -0.006 | -0.013 | -0.0599 | -0.04
CCN(CCO)CCCOc1ccc2c(Nc3cc(CC(=O)Nc4cccc(F)c4)[nH]n3)ncnc2c1 [AZD2811] + C[C@@H]1COCCN1C2=NC(=NC(=C2)C3(CC3)[S@](=N)(=O)C)C4=C5C=CNC5=NC=C4 [AZD6738] (first compound max 1 µM, 7x7, partner max 10 µM) | -0.0332 | 0.0015 | -0.0825 | -0.0541 | 0.0317 | -0.0337 | -0.0431 | -0.0218 | -0.0054 | -0.0228 | -0.0558 | -0.0451
CCN(CCO)CCCOc1ccc2c(Nc3cc(CC(=O)Nc4cccc(F)c4)[nH]n3)ncnc2c1 [AZD2811] + O=C(c1cc(Cc2n[nH]c(=O)c3ccccc23)ccc1F)N1CCN(C(=O)C2CC2)CC1 [Olaparib] (first compound max 1 µM, 7x7, partner max 10 µM) | -0.0895 | 0.0017 | -0.0109 | -0.0234 | 0.0453 | 0.0186 | 0.0463 | 0.0395 | -0.0131 | 0.0145 | -0.0303 | -0.001
CN(CCO)CC[C@H](CSc1ccccc1)Nc1ccc(S(=O)(=O)NC(=O)c2ccc(N3CCC([C@@H](O)c4ccccc4-c4ccc(Cl)cc4)CC3)cc2)cc1S(=O)(=O)C(F)(F)F [AZD4320] + C1CN(CCC1(C(=O)N[C@@H](CCO)C2=CC=C(C=C2)Cl)N)C3=NC=NC4=C3C=CN4 [Capivasertib] (first compound max 1 µM, 7x7, partner max 3 µM) | 0.0452 | -0.0296 | -0.0366 | 0.0139 | -0.0006 | -0.0546 | 0.0691 | 0.0035 | -0.0173 | 0.0148 | -0.0309 | 0.0563
CN(CCO)CC[C@H](CSc1ccccc1)Nc1ccc(S(=O)(=O)NC(=O)c2ccc(N3CCC([C@@H](O)c4ccccc4-c4ccc(Cl)cc4)CC3)cc2)cc1S(=O)(=O)C(F)(F)F [AZD4320] + C=CCn1c(=O)c2cnc(Nc3ccc(N4CCN(C)CC4)cc3)nc2n1-c1cccc(C(C)(C)O)n1 [AZD1775] (first compound max 1 µM, partner max 1 µM) | 0.113 | -0.0529 | -0.0294 | -0.0122 | 0.0431 | 0.0108 | -0.009 | 0.0348 | 0.0959 | 0.038 | -0.0382 | 0.0422
CN(CCO)CC[C@H](CSc1ccccc1)Nc1ccc(S(=O)(=O)NC(=O)c2ccc(N3CCC([C@@H](O)c4ccccc4-c4ccc(Cl)cc4)CC3)cc2)cc1S(=O)(=O)C(F)(F)F [AZD4320] + CCN(CCO)CCCOc1ccc2c(Nc3cc(CC(=O)Nc4cccc(F)c4)[nH]n3)ncnc2c1 [AZD2811] (first compound max 1 µM, 7x7, partner max 1 µM) | -0.0531 | 0.0236 | 0.108 | 0.0522 | 0.0705 | -0.0148 | 0.201 | 0.0831 | 0.0729 | -0.0226 | -0.0476 | 0.135
CN(CCO)CC[C@H](CSc1ccccc1)Nc1ccc(S(=O)(=O)NC(=O)c2ccc(N3CCC([C@@H](O)c4ccccc4-c4ccc(Cl)cc4)CC3)cc2)cc1S(=O)(=O)C(F)(F)F [AZD4320] + CN(C)CCCOc1ccc(-c2ccc3ncc4c(c3c2)n(C2CCOCC2)c(=O)n4C)cn1 [AZD0156] (first compound max 1 µM, 7x7, partner max 1 µM) | 0.0814 | -0.0247 | -0.0518 | -0.0353 | -0.0284 | -0.0537 | 0.0117 | -0.0323 | 0.0127 | -0.0545 | -0.0392 | -0.0117
CN(CCO)CC[C@H](CSc1ccccc1)Nc1ccc(S(=O)(=O)NC(=O)c2ccc(N3CCC([C@@H](O)c4ccccc4-c4ccc(Cl)cc4)CC3)cc2)cc1S(=O)(=O)C(F)(F)F [AZD4320] + C[C@@H]1COCCN1C2=NC(=NC(=C2)C3(CC3)[S@](=N)(=O)C)C4=C5C=CNC5=NC=C4 [AZD6738] (first compound max 1 µM, 7x7, partner max 10 µM) | -0.0083 | -0.0685 | -0.0143 | 0.0139 | 0.0253 | -0.0285 | 0.0329 | 0.0256 | -0.0076 | 0.0245 | -0.0458 | 0.0156
CN(CCO)CC[C@H](CSc1ccccc1)Nc1ccc(S(=O)(=O)NC(=O)c2ccc(N3CCC([C@@H](O)c4ccccc4-c4ccc(Cl)cc4)CC3)cc2)cc1S(=O)(=O)C(F)(F)F [AZD4320] + Cc1cc2ncnn2cc1Nc1ncc2c(n1)n(C1CCOCC1)c(=O)n2C [AZD7648] (first compound max 1 µM, 7x7, partner max 10 µM) | -0.0229 | -0.03 | -0.0197 | 0.0051 | -0.0195 | -0.0154 | 0.0591 | -0.0389 | 0.0024 | 0.0314 | -0.0398 | 0.0119
Cc1c2c(nn1C)CSCc1cc(n(C)n1)CSc1cc(c3ccccc3c1)OCCCc1c(C(=O)O)n(C)c3c-2c(Cl)ccc13 [AZD5991] + C1CN(CCC1(C(=O)N[C@@H](CCO)C2=CC=C(C=C2)Cl)N)C3=NC=NC4=C3C=CN4 [Capivasertib] (first compound max 1 µM, 7x7, partner max 3 µM) | 0.0182 | -0.0203 | -0.0275 | 0.0094 | 0.0297 | -0.0205 | 0.013 | 0.0473 | 0.015 | -0.034 | -0.015 | 0.004
Cc1c2c(nn1C)CSCc1cc(n(C)n1)CSc1cc(c3ccccc3c1)OCCCc1c(C(=O)O)n(C)c3c-2c(Cl)ccc13 [AZD5991] + CC1(C)CCC(CN2CCN(c3ccc(C(=O)NS(=O)(=O)c4ccc(NCC5CCOCC5)c([N+](=O)[O-])c4)c(Oc4cnc5[nH]ccc5c4)c3)CC2)=C(c2ccc(Cl)cc2)C1 [Venetoclax] (first compound max 1 µM, 7x7, partner max 1 µM) | 0.137 | -0.0298 | -0.0317 | 0.0701 | -0.0095 | -0.0328 | 0.173 | 0.0174 | 0.105 | 0.0059 | -0.0423 | 0.147
Cc1c2c(nn1C)CSCc1cc(n(C)n1)CSc1cc(c3ccccc3c1)OCCCc1c(C(=O)O)n(C)c3c-2c(Cl)ccc13 [AZD5991] + CCN(CCO)CCCOc1ccc2c(Nc3cc(CC(=O)Nc4cccc(F)c4)[nH]n3)ncnc2c1 [AZD2811] (first compound max 1 µM, 7x7, partner max 1 µM) | -0.0193 | -0.0192 | 0.0295 | 0.051 | 0.0125 | 0.0042 | 0.0804 | 0.0534 | 0.0059 | -0.0063 | -0.0356 | 0.0734
Cc1c2c(nn1C)CSCc1cc(n(C)n1)CSc1cc(c3ccccc3c1)OCCCc1c(C(=O)O)n(C)c3c-2c(Cl)ccc13 [AZD5991] + CN(C)CCCOc1ccc(-c2ccc3ncc4c(c3c2)n(C2CCOCC2)c(=O)n4C)cn1 [AZD0156] (first compound max 1 µM, 7x7, partner max 1 µM) | 0.0014 | -0.0786 | 0.0431 | 0.0096 | -0.0195 | -0.0035 | -0.0033 | -0.0158 | -0.0098 | 0.0051 | -0.0139 | 0.0198
Cc1c2c(nn1C)CSCc1cc(n(C)n1)CSc1cc(c3ccccc3c1)OCCCc1c(C(=O)O)n(C)c3c-2c(Cl)ccc13 [AZD5991] + C[C@@H]1COCCN1C2=NC(=NC(=C2)C3(CC3)[S@](=N)(=O)C)C4=C5C=CNC5=NC=C4 [AZD6738] (first compound max 1 µM, 7x7, partner max 10 µM) | -0.0033 | -0.0411 | 0.0475 | -0.0109 | -0.0115 | 0.0187 | 0.0004 | -0.0135 | 0.0406 | -0.0259 | 0.0337 | 0.031
Cc1c2c(nn1C)CSCc1cc(n(C)n1)CSc1cc(c3ccccc3c1)OCCCc1c(C(=O)O)n(C)c3c-2c(Cl)ccc13 [AZD5991] + C[C@@H](Nc1cc(F)cc(F)c1)c1cc(C(=O)N(C)C)cc2c(=O)cc(N3CCOCC3)oc12 [AZD8186] (first compound max 1 µM, 7x7, partner max 3 µM) | -0.041 | 0.0117 | -0.0421 | -0.0186 | -0.0104 | 0.0012 | -0.058 | -0.0271 | 0.0171 | -0.0271 | 0.0062 | -0.0262
Cc1c2c(nn1C)CSCc1cc(n(C)n1)CSc1cc(c3ccccc3c1)OCCCc1c(C(=O)O)n(C)c3c-2c(Cl)ccc13 [AZD5991] + Cc1cc2ncnn2cc1Nc1ncc2c(n1)n(C1CCOCC1)c(=O)n2C [AZD7648] (first compound max 1 µM, 7x7, partner max 10 µM) | 0.0055 | -0.0466 | 0.013 | -0.0158 | -0.0252 | -0.0098 | -0.0422 | -0.014 | -0.0093 | -0.036 | -0.069 | 0.0016
